Patent US9073830B2 (Hyundai Pharm Co., Ltd., priority 2011, dated 2015)

Assays:
[1] = biological target: T1, human 11β-HSD1 (Homo sapiens, UniProt P28845); assay: Enzyme activity analysis on human 11β-HSD1 (HTRF cortisol, liver microsomes); type: biochemical; conditions: first value of cell
T1 construct: 100 ug/ml human/mouse liver microsomes; from tissue; host or cells: human liver microsomes
Protocol: (§1) After culturing at 37° C. for 2 hours, 5 μl of cryptate-labeled anti-cortisol antibody and 5 μl of d2-labeled cortisol were added thereto. After further culturing at room temperature for 2 hours, a homogeneous time-resolved fluorescence (HTRF, Cisbio) signal was measured. From each analysis, based on a standard curve calculated using cortisols of several known concentrations, an amount of produced cortisol was tested.
(§2) While an amount of cortisol, produced without the compound, was used as a control, an inhibition percentage by the test compound, at each concentration, was calculated. By using an inhibition curve calculated by coordinates of inhibition percentage to test compound concentration, an IC50 value of the compound on 11β-HSD1 was obtained.

[2] = biological target: T2, mouse 11β-HSD1 (Mus musculus, UniProt P50172); assay: Enzyme activity analysis on mouse 11β-HSD1 (HTRF cortisol, liver microsomes); type: biochemical; conditions: second value of cell
T2 construct: 100 ug/ml human/mouse liver microsomes; from tissue; host or cells: mouse liver microsomes
Protocol: as §1, §2

T1 sequence (P28845 whole entry): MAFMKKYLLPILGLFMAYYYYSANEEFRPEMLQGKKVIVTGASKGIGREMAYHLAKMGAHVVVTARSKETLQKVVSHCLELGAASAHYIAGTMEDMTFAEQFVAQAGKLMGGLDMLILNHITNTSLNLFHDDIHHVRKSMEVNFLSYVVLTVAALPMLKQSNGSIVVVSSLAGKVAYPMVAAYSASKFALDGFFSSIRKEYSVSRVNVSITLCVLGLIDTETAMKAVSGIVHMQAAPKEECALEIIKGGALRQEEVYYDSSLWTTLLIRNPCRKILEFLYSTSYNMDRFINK
T2 sequence (P50172 whole entry): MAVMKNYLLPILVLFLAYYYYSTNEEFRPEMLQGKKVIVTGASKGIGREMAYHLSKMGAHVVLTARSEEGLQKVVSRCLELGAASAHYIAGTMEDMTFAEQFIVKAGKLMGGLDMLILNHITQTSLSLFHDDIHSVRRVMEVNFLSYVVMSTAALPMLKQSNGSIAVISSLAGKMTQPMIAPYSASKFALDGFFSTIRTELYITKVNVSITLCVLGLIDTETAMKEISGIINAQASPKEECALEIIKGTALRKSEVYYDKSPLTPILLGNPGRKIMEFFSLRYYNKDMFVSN

Row | IC50 [1] [µM] | IC50 [2] [µM] | Compound
1 | 0.216 | 0.329 | COc1cccc(S(=O)(=O)NC(C)(C)C(=O)NC2C3CC4CC(C3)CC2C4)c1 (stereo not drawn) [compound 29, N-(adamantane-2-yl)-2-methyl-2-(3-methoxyphenylsulfonamido)propanamide]
2 | 0.192 | 0.462 | CC(C)(NS(=O)(=O)c1cccc(F)c1)C(=O)NC1C2CC3CC(C2)CC1C3 (stereo not drawn) [compound 30, N-(adamantane-2-yl)-2-methyl-2-(3-fluorophenylsulfonamido)propanamide]
3 | 0.409 | 1.06 | CC(C)(NS(=O)(=O)c1ccc(Cl)cc1F)C(=O)NC1C2CC3CC(C2)CC1C3 (stereo not drawn) [compound 31, N-(adamantane-2-yl)-2-methyl-2-(4-chloro-2-fluorophenylsulfonamido)propanamide]
4 | 0.051 | 0.583 | CC(C)(NS(=O)(=O)c1ccc(F)cc1C(F)(F)F)C(=O)NC1C2CC3CC(C2)CC1C3 (stereo not drawn) [compound 32, N-(adamantane-2-yl)-2-methyl-2-(4-fluoro-2-trifluoromethylphenylsulfonamido)propanamide]
5 | 0.065 | 1.67 | CC(C)(NS(=O)(=O)Cc1ccc(Cl)cc1)C(=O)NC1C2CC3CC(C2)CC1C3 (stereo not drawn) [compound 33, N-(adamantane-2-yl)-2-methyl-2-((4-chlorophenyl)methylsulfonamido)propanamide]
6 | 0.048 | 0.7 | CC(C)(NS(=O)(=O)Cc1ccccc1Cl)C(=O)NC1C2CC3CC(C2)CC1C3 (stereo not drawn) [compound 34, N-(adamantane-2-yl)-2-methyl-2-((2-chlorophenyl)methylsulfonamido)propanamide]
7 | > 2.5 | > 2.5 | CC(C)(NS(=O)(=O)Cc1ccc(Cl)c(Cl)c1)C(=O)NC1C2CC3CC(C2)CC1C3 (stereo not drawn) [compound 35, N-(adamantane-2-yl)-2-methyl-2-((3,4-dichlorophenyl)methylsulfonamido)propanamide]
8 | 0.04 | > 2.5 | CC(C)(NS(=O)(=O)Cc1ccc(C(F)(F)F)cc1)C(=O)NC1C2CC3CC(C2)CC1C3 (stereo not drawn) [compound 36, N-(adamantane-2-yl)-2-methyl-2-((4-trifluoromethylphenyl)methylsulfonamido)propanamide]
9 | > 2.5 | > 2.5 | CC(C)(NS(=O)(=O)c1ccc(C(F)(F)F)cc1)C(=O)NC1C2CC3CC(C2)CC1C3 (stereo not drawn) [compound 37, N-(adamantane-2-yl)-2-methyl-2-(4-trifluoromethylphenylsulfonamido)propanamide]
10 | 0.829 | 0.847 | CC(=O)c1ccc(S(=O)(=O)NC(C)(C)C(=O)NC2C3CC4CC(C3)CC2C4)cc1 (stereo not drawn) [compound 38, N-(adamantane-2-yl)-2-methyl-2-(4-acetylphenylsulfonamido)propanamide]
11 | 0.043 | 0.561 | Cc1cc(F)ccc1S(=O)(=O)NC(C)(C)C(=O)NC1C2CC3CC(C2)CC1C3 (stereo not drawn) [compound 39, N-(adamantane-2-yl)-2-methyl-2-(4-fluoro-2-methylphenylsulfonamido)propanamide]
12 | 0.098 | 1.85 | Cc1ccc([N+](=O)[O-])cc1S(=O)(=O)NC(C)(C)C(=O)NC1C2CC3CC(C2)CC1C3 (stereo not drawn) [compound 40, N-(adamantane-2-yl)-2-methyl-2-(5-nitro-2-methylphenylsulfonamido)propanamide]
13 | 0.041 | 0.156 | CC(C)(NS(=O)(=O)c1c(F)cccc1F)C(=O)NC1C2CC3CC(C2)CC1C3 (stereo not drawn) [compound 41, N-(adamantane-2-yl)-2-methyl-2-(2,6-difluorophenylsulfonamido)propanamide]
14 | 1.8 | 1.7 | CC(C)(NS(=O)(=O)c1ccc(-c2ccccc2)cc1)C(=O)NC1C2CC3CC(C2)CC1C3 (stereo not drawn) [compound 42, N-(adamantane-2-yl)-2-methyl-2-([1,1-biphenyl]-4-ylsulfonamido)propanamide]
15 | 0.481 | 0.167 | CC(C)(NS(=O)(=O)c1ccc(C(=O)NC2C3CC4CC(C3)CC2C4)cc1Cl)C(=O)NC1C2CC3CC(C2)CC1C3 (stereo not drawn) [compound 44]
16 | 0.009 | 0.02 | CC(C)(NS(=O)(=O)c1c(Cl)cccc1Cl)C(=O)NC1C2CC3CC(C2)CC1C3 (stereo not drawn) [compound 45, N-(adamantane-2-yl)-2-methyl-2-(2,6-dichlorophenylsulfonamido)propanamide]
17 | 0.105 | 0.621 | CC(C)(NS(=O)(=O)c1ccc(Cl)cc1Cl)C(=O)NC1C2CC3CC(C2)CC1C3 (stereo not drawn) [compound 46, N-(adamantane-2-yl)-2-methyl-2-(2,4-dichlorophenylsulfonamido)propanamide]
18 | 0.082 | 1.92 | COc1ccc(S(=O)(=O)NC(C)(C)C(=O)NC2C3CC4CC(C3)CC2C4)c(OC)c1 (stereo not drawn) [compound 47, N-(adamantane-2-yl)-2-methyl-2-(2,4-dimethoxyphenylsulfonamido)propanamide]

Row | IC50 [1] [µM] | IC50 [2] [µM] | Compound
19 | 0.02 | 1.83 | COc1ccc(OC)c(S(=O)(=O)NC(C)(C)C(=O)NC2C3CC4CC(C3)CC2C4)c1 (stereo not drawn) [compound 48, N-(adamantane-2-yl)-2-methyl-2-(2,5-dimethoxyphenylsulfonamido)propanamide]
20 | 1.35 | > 2.5 | CC(C)(NS(=O)(=O)c1cc(C(F)(F)F)cc(C(F)(F)F)c1)C(=O)NC1C2CC3CC(C2)CC1C3 (stereo not drawn) [compound 49, N-(adamantane-2-yl)-2-methyl-2-(3,5-ditrifluoromethylphenylsulfonamido)propanamide]
21 | 0.105 | 0.292 | CC(C)(NS(=O)(=O)c1cccnc1Cl)C(=O)NC1C2CC3CC(C2)CC1C3 (stereo not drawn) [compound 50, N-(adamantane-2-yl)-2-methyl-2-(2-chloropyridine-3-sulfonamido)propanamide]
22 | 0.183 | 1.3 | CC(C)(NS(=O)(=O)c1ccc(Cl)c(Cl)c1Cl)C(=O)NC1C2CC3CC(C2)CC1C3 (stereo not drawn) [compound 51, N-(adamantane-2-yl)-2-methyl-2-(2,3,4-trichlorophenylsulfonamido)propanamide]
23 | 1.17 | 2.14 | CC(C)(NS(=O)(=O)CCc1cccc2ccccc12)C(=O)NC1C2CC3CC(C2)CC1C3 (stereo not drawn) [compound 52, N-(adamantane-2-yl)-2-methyl-2-(2-(naphthalene-1-yl)ethylsulfonamido)propanamide]
24 | 0.21 | 0.673 | CCc1ccc(S(=O)(=O)NC(C)(C)C(=O)NC2C3CC4CC(C3)CC2C4)cc1 (stereo not drawn) [compound 53, N-(adamantane-2-yl)-2-methyl-2-(4-ethylphenylsulfonamido)propanamide]
25 | 0.223 | 0.904 | CC(C)(NS(=O)(=O)c1ccc(F)c(Cl)c1)C(=O)NC1C2CC3CC(C2)CC1C3 (stereo not drawn) [compound 54, N-(adamantane-2-yl)-2-methyl-2-(4-fluoro-3-chlorophenylsulfonamido)propanamide]
26 | 0.039 | 0.186 | CC(C)(NS(=O)(=O)c1ccc(F)cc1Cl)C(=O)NC1C2CC3CC(C2)CC1C3 (stereo not drawn) [compound 55, N-(adamantane-2-yl)-2-methyl-2-(4-fluoro-2-chlorophenylsulfonamido)propanamide]
27 | 0.532 | > 2.5 | CC(C)(NS(=O)(=O)c1ccccc1C(N)=O)C(=O)NC1C2CC3CC(C2)CC1C3 (stereo not drawn) [compound 56]
28 | 1.04 | 1.32 | CC(C)c1ccc(S(=O)(=O)NC(C)(C)C(=O)NC2C3CC4CC(C3)CC2C4)cc1 (stereo not drawn) [compound 57, N-(adamantane-2-yl)-2-methyl-2-(4-isopropylphenylsulfonamido)propanamide]
29 | 0.199 | 0.621 | CC(C)(NS(=O)(=O)c1ccc(F)cc1F)C(=O)NC1C2CC3CC(C2)CC1C3 (stereo not drawn) [compound 58, N-(adamantane-2-yl)-2-methyl-2-(2,4-difluorophenylsulfonamido)propanamide]
30 | 0.331 | 1.21 | Cc1cc(C)cc(S(=O)(=O)NC(C)(C)C(=O)NC2C3CC4CC(C3)CC2C4)c1 (stereo not drawn) [compound 59, N-(adamantane-2-yl)-2-methyl-2-(3,5-dimethylphenylsulfonamido)propanamide]
31 | 0.135 | 0.644 | COc1cc([N+](=O)[O-])ccc1S(=O)(=O)NC(C)(C)C(=O)NC1C2CC3CC(C2)CC1C3 (stereo not drawn) [compound 60, N-(adamantane-2-yl)-2-methyl-2-(4-nitro-2-methoxyphenylsulfonamido)propanamide]
32 | > 2.5 | > 2.5 | CC(C)(NS(=O)(=O)c1ccc(Cl)c([N+](=O)[O-])c1)C(=O)NC1C2CC3CC(C2)CC1C3 (stereo not drawn) [compound 61, N-(adamantane-2-yl)-2-methyl-2-(4-chloro-3-nitrophenylsulfonamido)propanamide]
33 | 0.215 | 0.686 | Cc1ccc(S(=O)(=O)NC(C)(C)C(=O)NC2C3CC4CC(C3)CC2C4)cc1Cl (stereo not drawn) [compound 62, N-(adamantane-2-yl)-2-methyl-2-(4-methyl-3-chlorophenylsulfonamido)propanamide]
34 | 0.039 | 0.283 | CC(C)(NS(=O)(=O)Cc1ccccc1)C(=O)NC1C2CC3CC(C2)CC1C3 (stereo not drawn) [compound 63, N-(adamantane-2-yl)-2-methyl-2-(phenylmethylsulfonamido)propanamide]
35 | 0.433 | 1.02 | CC(C)(NS(=O)(=O)c1cccc(Br)c1)C(=O)NC1C2CC3CC(C2)CC1C3 (stereo not drawn) [compound 64, N-(adamantane-2-yl)-2-methyl-2-(3-bromophenylsulfonamido)propanamide]
36 | 0.996 | 1.65 | CC(C)(NS(=O)(=O)c1ccc(Br)cc1)C(=O)NC1C2CC3CC(C2)CC1C3 (stereo not drawn) [compound 65, N-(adamantane-2-yl)-2-methyl-2-(4-bromophenylsulfonamido)propanamide]
